According to patent US20250009713A1 (priority 2021, published 2025):
“Also recorded” adds a separate entry of the source. Read-outs that look alike come from different tables or passages of the source.

How the values were obtained:
[1] = tested on: SARS-COV-2 Japan/TY7-503/2021-Brazil_P.1 (NR-54982); test: plaque assay of infectious virus released into culture medium, Vero cells; assay type: cell-based
[2] = tested on: six strains of SARS-COV-2; test: plaque assay, summary over six strains and two cell types; assay type: cell-based
[3] = tested on: SARS-COV-2 (2019n-COV/USA-WA1/2020); assay type: in vivo, K18-hACE2 mice; conditions: for reduction of infectious virus recovered from lung tissue: 7 days, Day 7, P<0.001
[4] = tested on: SARS-COV-2 Japan/TY7-503/2021-Brazil_P.1 (NR-54982); test: qRT-PCR of viral genome copies released into culture medium, Vero cells; assay type: cell-based
[5] = tested on: SARS-COV-2 (2019n-COV/USA-WA1/2020); assay type: in vivo, K18-hACE2 mice; conditions: for reduction of viral load in lung: 7 days, Day 7
[6] = tested on: SARS-COV-2 (2019n-COV/USA-WA1/2020); assay type: in vivo, K18-hACE2 mice
[7] = tested on: SARS-COV-2 Japan/TY7-503/2021-Brazil_P.1 (NR-54982); test: plaque assay of infectious virus released into culture medium, Calu-3 cells; assay type: cell-based
[8] = tested on: SARS-COV-2 Japan/TY7-503/2021-Brazil_P.1 (NR-54982); test: qRT-PCR of viral genome copies released into culture medium, Calu-3 cells; assay type: cell-based
[9] = tested on: SARS-COV-2 US-WA1/2020 (NR-52281); test: plaque assay of infectious virus released into culture medium, Vero cells; assay type: cell-based
[10] = tested on: IL-6; IL-1a; IL-1B; TNFα; TGFβ; MCP-1; assay type: in vivo, K18-hACE2 mice; conditions: 7 days post infection
[11] = tested on: SARS-COV-2 US-WA1/2020 (NR-52281); test: plaque assay of infectious virus released into culture medium, Calu-3 cells; assay type: cell-based
[12] = tested on: SARS-COV-2 US-WA1/2020 (NR-52281); test: qRT-PCR of viral genome copies released into culture medium, Calu-3 cells; assay type: cell-based
[13] = tested on: SARS-COV-2 US-WA1/2020 (NR-52281); test: qRT-PCR of viral genome copies released into culture medium, Vero cells; assay type: cell-based
[14] = tested on: six strains of SARS-COV-2; test: qRT-PCR assay, summary over six strains and two cell types; assay type: cell-based
[15] = Severe acute respiratory syndrome coronavirus 2, virus BR, m.o.i 0.1, BIT225 added 1 hour pre-infection, 4 days post infection
[16] = virus BR, log-logistic curve fit
[17] = 300 mg/kg twice daily, day 5 (Experiment 3) or Day 12 (Experiment 2), 11 mice
[18] = Experiment 1, 100 mg/kg or 300 mg/kg for 7 days, vs vehicle
[19] = Severe acute respiratory syndrome coronavirus 2, m.o.i 0.1, BIT225 added 1 hour pre-infection, 4 days post infection
[20] = Severe acute respiratory syndrome coronavirus 2, virus WA1, m.o.i 0.1, BIT225 added 1 hour pre-infection, 4 days post infection
[21] = virus WA1, log-logistic curve fit

Structure (SMILES): Cn1cc(-c2cccc3cc(C(=O)NC(=N)N)ccc23)cn1 [BIT225, N-carbamimidoyl-5-(1-methyl-1H-pyrazol-4-yl)-2-naphthamide]
- EC50 [1, 15]: 6.36 µM
- Max. Response (d) [1, 16]: 6.39 log10
- Slope (b) [1, 16]: 1.67
- EC50 ([2]; Severe acute respiratory syndrome coronavirus 2, read-out: EC50, range): 3.4 to 7.9 µM
- EC50 ([2]; Severe acute respiratory syndrome coronavirus 2, plaque assay, mean over six strains and two cell types, read-out: EC50, mean): 6.2 µM
- lung plaque counts [3, 17]: < 200 mL⁻¹
- infectious virus in serum [3, 18]: significant reductions
- reduction of infectious virus recovered from lung tissue ([3]; Experiment 1, 100 mg/kg twice daily): approximately 2000 PFU/mL
- reduction of infectious virus recovered from lung tissue ([3]; Experiment 1, 300 mg/kg twice daily): ~4000 PFU/mL
- EC50 [4, 15]: 4.03 µM
- Max. Response (d) [4, 16]: 3.53 log10
- Slope (b) [4, 16]: 1.13
- lung viral loads (qRT-PCR) [5, 17]: at or below the limits of detection
- viral load in serum [5, 18]: significant reductions
- reduction of viral load in lung ([5]; Experiment 1, 100 mg/kg twice daily, vs vehicle, P<0.001): approximately 2 log 10
- reduction of viral load in lung ([5]; Experiment 1, 300 mg/kg twice daily, vs vehicle): approximately 3.5 log 10
- survival to day 5 (Experiment 3) or Day 12 (Experiment 2) ([6]; 11 mice, 300 mg/kg twice daily): all survived
- difference in body weight changes between the two BIT225 dosing levels ([6]; Experiment 1, 100 mg/kg vs 300 mg/kg twice daily, 7 days): no significant difference
- difference between group-mean body weight changes, vehicle lower than combined BIT225 groups ([6]; Experiment 1, day 5, P=0.01): 3.8%
- difference between group-mean body weight changes, vehicle lower than combined BIT225 groups ([6]; Experiment 1, day 6, P=0.001): 6.4%
- mice with body weights greater than their pre-infection weights ([6]; Experiment 1, day 7, 100 mg/kg or 300 mg/kg twice daily): all 10
- difference between group-mean body weight changes, vehicle lower than combined BIT225 groups ([6]; Experiment 1, day 7, 95% CI [5.6-10.7], P=0.001): 8.1%
- survival and weight gain to day 12 ([6]; Experiment 2, 300 mg/kg twice daily for 12 days, n=7, all vehicle mice died by day 9, P<0.001 log-rank, 300 mg/kg): all mice survived and continued to gain weight; also recorded: all seven mice in the BIT225 group survived
- health and weight change to Day 5 ([6]; Experiment 3, 300 mg/kg twice daily, 5 days, n=4): remained healthy and gained weight to Day 5
- survival, health and weight gain through day 12 ([6]; Experiment 4, 300 mg/kg twice daily starting 24 h post-infection, n=5, 300 mg/kg): remained healthy and continued gain weight as per age expectations through to day 12; also recorded: survived to Day 12
- survival, health and weight gain through day 12 ([6]; Experiment 4, 300 mg/kg twice daily starting 24 h pre-infection, n=5, 300 mg/kg): remained healthy and continued gain weight as per age expectations through to day 12; also recorded: survived to Day 12
- mice that died (day 11) ([6]; Experiment 4, 300 mg/kg twice daily starting 48 h post-infection, n=5, 300 mg/kg): One of the five; also recorded: one mouse
- mice that continued to gain body weight ([6]; across three experiments, 12 hourly oral doses of BIT225 (100 or 300 mg/kg), intranasal): 21 out of 21
- EC50 [7, 15]: 5.79 µM
- Max. Response (d) [7, 16]: 3.39 log10
- Slope (b) [7, 16]: 1.36
- EC50 [8, 15]: 4.64 µM
- Max. Response (d) [8, 16]: 2.53 log10
- Slope (b) [8, 16]: 1.12
- EC50 [9, 19]: 4.09 µM
- Max. Response (d) ([9]; log-logistic curve fit): 6.40 log10
- Slope (b) ([9]; log-logistic curve fit): 1.45
- IL-6 level, statistically significant (P<0.05) lower than vehicle control ([10]; 100 mg/kg dose group): exception
- mean and median cytokine concentrations relative to vehicle control group ([10]; high-dose BIT225 group (300 mg/kg)): less than half
- end-of-treatment levels of IL-6, IL-1a, IL-1B, TNFα, TGFβ and MCP-1 ([10]; lung and serum, 100 or 300 mg/kg twice daily, vs vehicle control): reduced
- EC50 [11, 19]: 3.43 µM
- Max. Response (d) ([11]; log-logistic curve fit): 3.38 log10
- Slope (b) ([11]; log-logistic curve fit): 1.31
- EC50 [12, 20]: 2.55 µM
- Max. Response (d) [12, 21]: 2.41 log10
- Slope (b) [12, 21]: 1.38
- EC50 [13, 20]: 2.53 µM
- Max. Response (d) [13, 21]: 3.29 log10
- Slope (b) [13, 21]: 1.79
- EC50 ([14]; Severe acute respiratory syndrome coronavirus 2, read-out: EC50 estimates, range): 2.5 to 4.8 µM
- EC50 ([14]; Severe acute respiratory syndrome coronavirus 2, qRT-PCR assay, mean over six strains and two cell types, read-out: EC50, mean): 3.7 µM
